Laboratory results from ChEMBL document CHEMBL2407045, “Discovery and gram-scale synthesis of BMS-593214, a potent, selective FVIIa inhibitor” (Bioorg Med Chem Lett, 2013).

What was measured:
Trypsin = Trypsin (Homo sapiens, UniProt P07477+P07478+P35030); experiment: Inhibition of purified human trypsin; assay type: protein assay
Coagulation factor VII = target: T1, Coagulation factor VII (Homo sapiens, UniProt P08709); experiment: Inhibition of recombinant human coagulation factor 7A
T1 sequence (P08709 whole entry): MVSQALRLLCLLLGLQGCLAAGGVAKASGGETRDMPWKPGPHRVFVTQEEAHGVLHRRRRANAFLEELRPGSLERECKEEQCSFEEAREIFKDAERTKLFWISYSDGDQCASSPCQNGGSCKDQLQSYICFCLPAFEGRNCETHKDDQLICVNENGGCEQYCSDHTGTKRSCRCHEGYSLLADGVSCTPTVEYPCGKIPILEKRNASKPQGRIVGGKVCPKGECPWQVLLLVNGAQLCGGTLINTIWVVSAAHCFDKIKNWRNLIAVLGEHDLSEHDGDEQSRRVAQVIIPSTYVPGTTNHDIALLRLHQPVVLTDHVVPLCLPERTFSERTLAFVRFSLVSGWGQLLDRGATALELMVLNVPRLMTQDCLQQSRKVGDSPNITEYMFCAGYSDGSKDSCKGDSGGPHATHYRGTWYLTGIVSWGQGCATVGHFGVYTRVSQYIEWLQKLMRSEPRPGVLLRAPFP

Coagulation factor X = Coagulation factor X (Homo sapiens, UniProt P00742); experiment: Inhibition of purified human coagulation factor 10a
Coagulation factor X, sequence (P00742 41-179 limits assumed): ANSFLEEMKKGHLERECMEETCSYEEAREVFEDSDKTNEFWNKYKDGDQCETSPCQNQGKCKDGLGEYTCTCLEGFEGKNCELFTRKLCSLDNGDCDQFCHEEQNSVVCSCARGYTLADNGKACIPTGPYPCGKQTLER
Coagulation factor X, sequence (P00742 235-488 limits assumed): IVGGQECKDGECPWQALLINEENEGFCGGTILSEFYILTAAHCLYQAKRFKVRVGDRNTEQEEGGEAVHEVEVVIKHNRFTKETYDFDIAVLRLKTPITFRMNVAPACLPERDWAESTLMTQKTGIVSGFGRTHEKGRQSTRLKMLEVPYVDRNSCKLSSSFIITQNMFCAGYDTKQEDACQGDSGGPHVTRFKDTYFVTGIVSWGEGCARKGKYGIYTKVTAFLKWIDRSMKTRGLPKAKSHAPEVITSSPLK

Prothrombin = Prothrombin (Homo sapiens, UniProt P00734); experiment: Inhibition of purified human thrombin
Oryctolagus cuniculus [1] = species on record: Oryctolagus cuniculus; experiment: Antithrombotic activity in rabbit electric current arterial thrombosis model; assay type: functional, organism-based
Oryctolagus cuniculus [2] = species on record: Oryctolagus cuniculus; experiment: Toxicity in rabbit assessed as prolongation of cuticle bleeding time; assay type: organism-based; conditions: in vivo
[3] = Anticoagulant activity in plasma (unknown origin) assessed as concentration required to double prothrombin time; assay type: functional

Row | SMILES | Ki (Trypsin) [nM] | Ki (Coagulation factor VII) [nM] | Ki (Coagulation factor X) [nM] | Ki (Prothrombin) [nM] | EC50 (Oryctolagus cuniculus [1]) [nM] | Activity (Oryctolagus cuniculus [2]) | 2PT [3] [µM]
1 | COc1cc([C@@H]2Nc3ccc(C(=N)N)cc3[C@H]3c4ccccc4C[C@H]32)ccc1O (racemic) | 300 | 160 | > 500 | 300 |  |  | 
2 | COc1cc([C@@H]2Nc3ccc(C(=N)N)cc3[C@H]3c4ccccc4C[C@H]32)c(-c2ccc(C(=O)O)cc2)cc1O |  |  |  |  | 570 | Non-toxic | 
3 | COc1cc([C@H]2C[C@H](c3ccccc3)c3cc(C(=N)N)ccc3N2)ccc1O |  | 1800 |  |  |  |  | 
4 | COc1cc([C@@H]2Nc3ccc(C(=N)N)cc3[C@H]3c4ccccc4C[C@H]32)c(-c2ccccc2C(=O)O)cc1O (racemic) | 7.5 | 0.62 | 16 | 35 |  |  | 
5 | COc1cc([C@@H]2Nc3ccc(C(=N)N)cc3[C@H]3c4ccccc4C[C@H]32)c(-c2ccc(C(=O)O)cc2)cc1O (racemic) | > 8000 | 1.9 | 1300 | 1800 |  |  | 16
6 | C[C@]1(c2ccccc2)C[C@H](c2ccc(O)cc2)Nc2ccc(C(=N)N)cc21 |  | 8800 |  |  |  |  | 
7 | COc1cc([C@@H]2Nc3ccc(C(=N)N)cc3[C@H]3c4ccccc4C[C@H]32)c(-c2cccc(C(=O)O)c2)cc1O (racemic) | 6900 | 8.1 | 1500 | 330 |  |  | 
